The values that follow come from article PMC9147274 (Pharmaceuticals, 2022).

Series [1] is described as follows: Cytotoxicity toward MRC-5, MTT assay. In kind it is cell-based. Particulars: human, MRC-5 cells, MRC-5 normal cells. Here is the method: (§1) DMSO was used as vehicle control. […] All experiments were performed in triplicate. […] Cells were exposed for 48 h.
For the next series, the system named is A549. Kind of series: Cytotoxicity toward A549, MTT assay. In kind it is cell-based, human. Particulars: Homo sapiens; A549, MTT, 48 h. The protocol:
as §1
(§2) Table S1 The cytotoxicity of triazole-cored derivatives toward various human lung carcinoma cell lines A549, Thai human cholangiocarcinoma cells HuCCA-1, T-cell acute lymphoblastic leukemia MOLT-3, and acute promyelocytic leukemia HL-60. The inhibitory activities were indicated as IC50 in micromolar scale (µM). The calculated selectivity indices (SI) were reported in square brackets.
(§3) Cancer Cell lines, IC50 (µM), [SI]
On the technique in general: Tetrazolium dyes change colour on reduction, which living cells bring about.

The next series deals with HuCCA-1. Put plainly: Cytotoxicity toward HuCCA-1, MTT assay. The format is cell-based, human. The note with it: Homo sapiens, HuCC-A1; HuCCA-1, MTT, 48 h. Here is the method:
as §1, §2, §3

A further series has as its system HL-60. Kind of series: Cytotoxicity toward HL-60, XTT assay. Particulars: Homo sapiens; HL-60, XTT, 48 h. In kind it is cell-based, human. The protocol: as §1, §2, §3
Series [2] deals with HepG2 cells. Kind of series: Cell-cycle analysis (propidium iodide, flow cytometry). In kind it is cell-based, human. The note with it: HepG2, 2 µM, 72 h. In general terms: A flow cytometer gives signals particle by particle.
Method: The concentration of DMSO was kept at 0.5% v/v for all conditions. Cells were washed with PBS before they were harvested; 1 × 10^5 Cells were collected and fixed with 70% ice-cold ethanol, and then washed twice with ice-cold PBS. Afterward, the cells were treated with 100 g/mL of DNase-free RNase A (Sigma-Aldrich, St. Louis, MO, USA) in PBS containing 0.1% v/v Triton-X 100 (Sigma-Aldrich, St. Louis, MO, USA) for 5 min at room temperature and then stained with 20 g/mL propidium iodide (Life Technologies, Carlsbad, CA, USA) in PBS containing 0.1% v/v Triton-X 100 for 15 min at room temperature while protected from light. Cell-cycle distribution was then analyzed with a flow cytometer (Attune NxT, Thermo Fischer Scientific, Waltham, MA, USA). Data were analyzed with Attune NxT Software (Thermo Fischer Scientific, Waltham, MA, USA). All experiments were performed in triplicate. Student’s t-test was used for statistical analysis; p < 0.05 was considered statistically significant [96].
The test system of series [3] is HepG2 cells. Kind of series: Detection of apoptosis (Muse Annexin V & Dead Cell Kit). The format is cell-based, human. The note with it: 48 h; for average percentage of apoptotic cells (total, early and late apoptosis): untreated 22.35 ± 0.07%. Here is the method:
Based on annexin V reactivity and the intensity of the 7-AAD fluorescence, cells can be classified into four categories: dead, live, early apoptosis, and late apoptosis. […] The detection of apoptosis was performed by the Muse® Annexin V & Dead Cell Kit according to the manufacturer’s protocol (Millipore, Billerica, MA, USA). […] An amount of 100 µL of HepG2 cells in suspension and 100 µL of Muse Annexin V & Dead Cell reagent were added to a 1.5 mL tube. The apoptosis was measured using the Muse cell analyzer and Muse analysis software (Millipore, Billerica, MA, USA). Cells were classified into four groups: live (Annexin V− and 7-AAD−), early apoptosis (Annexin V+ and 7-AAD−), late apoptosis (Annexin V+ and 7-AAD+), and dead or necrotic (Annexin V− and 7-AAD+). The apoptosis experiment was performed in duplicate.

For series [4] the following is noted: cited from earlier work.
Series [5] concerns HepG2 cells. Put plainly: Cell morphology by light microscopy. The note with it: 48 h, 2.5-10.0 µM.
In the next series the test system is HepG2. Put plainly: Cytotoxicity toward HepG2, MTT assay. The note with it: read-out: Cytotoxicity HepG2 IC50; HepG2, MTT, 72 h.

As usually defined, the IC50 is the concentration that inhibits the measured activity by half. In turn, `CNC(=O)c1cc(Oc2ccc(NC(=O)Nc3ccc(Cl)c(C(F)(F)F)c3)cc2)ccn1` [Sorafenib] returned an IC50 at 48 h in series [1] of 19.7 ± 1.68 µM. Besides, the IC50 was determined as 19.65 ± 0.01 µM in the series on A549, 33.2 ± 1.45 µM with HuCCA-1, 5.35 ± 0.38 µM in the series with HL-60 and 5.97 ± 0.71 µM with HepG2. Also, the “Effect on cell cycle” value with HepG2 cells [2] was “induced S and G2/M phase cell-cycle arrest”. The “Late Apop./Dead (late stage apoptotic cells)” value in the series with HepG2 cells [3] (HepG2, 2.5 µM) is on record as 7.60%; with HepG2 cells [3] (HepG2, 10.0 µM), 13.65%. Besides, the “average percentage of apoptotic cells (total, early and late apoptosis)” value in the series with HepG2 cells [3] (HepG2, 2.5 µM) is reported as 24.55 ± 0.28%; in the series with HepG2 cells [3] (HepG2, 10.0 µM) it was 46.45 ± 0.78%. Further, in series [4], the bioavailability was 38–49%. For the same molecule, the “Cell morphology changes of HepG2” value in the series with HepG2 cells [5] is “cell morphology changes (shrink and smaller in size) were observed after treating HepG2 with Sorafenib at 5.0 µM and 10.0 µM”.
